Assay results published in ChEMBL document CHEMBL3632490, “Cytotoxic Barrigenol-like Triterpenoids from an Extract of Cyrilla racemiflora Housed in a Repository” (J Nat Prod, 2015).
pIC50: −log10 of the molar value.

tested on: HT-29; test: Cytotoxicity against human HT-29 cells assessed as inhibition of cell viability after 3 days by sulforhodamine B assay; type: functional, cell-based; conditions: HT-29, 72 h

Compound	pIC50
CC1(C)C[C@H]2C3=CC[C@@H]4[C@@]5(C)C=CC(=O)C(C)(C)[C@@H]5CC[C@@]4(C)[C@]3(C)C[C@@H](O)[C@@]2(CO)[C@@H](O)[C@@H]1O	< 5.00
C/C=C(/C)C(=O)O[C@@H]1[C@@H](O)[C@H](O[C@H]2CC(C)(C)C[C@H]3C4=CC[C@@H]5[C@@]6(C)C=C[C@H](O)C(C)(C)[C@@H]6CC[C@@]5(C)[C@]4(C)C[C@@H](O)[C@@]23CO)O[C@H](CO)[C@H]1OC(=O)/C(C)=C\C	< 5.00
C/C=C(/C)C(=O)O[C@H]1[C@H](OC(C)=O)[C@]2(CO)[C@H](O)C[C@]3(C)C(=CC[C@@H]4[C@@]5(C)CC[C@H](O)C(C)(C)[C@@H]5CC[C@]43C)[C@@H]2CC1(C)C	5.11
C/C=C(/C)C(=O)O[C@H]1CC(C)(C)C[C@H]2C3=CC[C@@H]4[C@@]5(C)CC[C@H](O)C(C)(C)[C@@H]5CC[C@@]4(C)[C@]3(C)[C@@H](O)[C@@H](O)[C@@]12CO	5.06
C/C=C(/C)C(=O)O[C@H]1[C@H](O)C(C)(C)C[C@H]2C3=CC[C@@H]4[C@@]5(C)CC[C@H](O)C(C)(C)[C@@H]5CC[C@@]4(C)[C@]3(C)[C@@H](O)[C@@H](O)[C@]21CO	< 5.00
C/C=C(/C)C(=O)O[C@H]1[C@H](O)[C@]2(CO)[C@H](O)C[C@]3(C)C(=CC[C@@H]4[C@@]5(C)CC[C@H](O)C(C)(C)[C@@H]5CC[C@]43C)[C@@H]2CC1(C)C	5.77

tested on: not listed separately; test: Cytotoxicity against human CCD-112CoN cells assessed as inhibition of cell viability after 3 days by sulforhodamine B assay; type: cell-based; conditions: 72 h

Compound	pIC50
C/C=C(/C)C(=O)O[C@H]1[C@H](O)[C@]2(CO)[C@H](O)C[C@]3(C)C(=CC[C@@H]4[C@@]5(C)CC[C@H](O)C(C)(C)[C@@H]5CC[C@]43C)[C@@H]2CC1(C)C	5.23
CC(=O)O[C@H]1C(=O)[C@@]2(C)[C@H]([C@H](OC(=O)c3ccccc3)[C@]3(O)C[C@H](OC(=O)[C@H](O)[C@@H](NC(=O)c4ccccc4)c4ccccc4)C(C)=C1C3(C)C)[C@]1(OC(C)=O)CO[C@@H]1C[C@@H]2O [PACLITAXEL]	4.71
